Measurements taken from US7019023B2, “Benzothiepine 1, 1-dioxide derivatives, a process for their preparation, pharmaceuticals comprising these compounds, and their use” (Aventis Pharma Deutschland GmbH, priority 1998, dated 2006).

test system: bile acid transport in the ileum and the fecal excretion of bile acids; assay: ED200 excretion: fecal excretion of 14C-taurocholate in the rat after oral administration twice daily; type: in vivo; details: Rattus norvegicus, po, 24 h, twice daily for one day, male Wistar rats; dose which increases fecal excretion of 14C taurocholic acid to 200% of control; diastereomer mixture unless stated
Procedure: The biological testing of the compounds according to the invention was carried out by determination of the ED200 excretion. This testing investigates the action of the compounds according to the invention on the bile acid transport in the ileum and the fecal excretion of bile acids in the rat after oral administration twice daily. The diastereomer mixtures of the compounds were tested.
The following recipe was used for the formulation of an aqueous solution:
the substances were dissolved in adequate volumes of an aqueous solution comprising Solutol (=polyethylene glycol […] hydroxystearate; BASF, Ludwigshafen, Germany; Batch No. 1763), so that a final concentration of 5% of Solutol is present in the aqueous solution. The solutions/suspensions were administered orally in a dose of 5 ml/kg. 2) Experimental Conditions
Male Wistar rats (Kastengrund, Hoechst AG, weight range 250–350 g) were kept in groups of 6 animals each and received a standard feed mixture (Altromin, Lage, Germany) from 10 days before the start of treatment (day 1) with a reversed day/night rhythm (4.00–16.00 dark, 16.00–4.00 light). Three days before the start of the experiment (day 0), the animals were divided into groups of 4 animals each.
After intravenous or subcutaneous administration of 5 μCi of ^14C-taurocholate per rat (day 0), the vehicles or test substances were given at 7.00–8.00 and at 15.00–16.00 on the following day (day 1) (treatment for one day).
Stool samples for the analysis of C-taurocholate were taken every 24 hours directly after the administration of the morning dose. The feces were weighed, stored at −18° C. and later suspended in 100 ml of demineralized water and homogenized (Ultra Turrax, Janke & Kunkel, IKA-Werk). Aliquot parts (0.5 g) were weighed and combusted on combustion lids (Combusto Cones, Canberra Packard) in a combustion apparatus (Tri Carb® 307 combuster Canberra Packard GmbH, Frankfurt am Main, Germany). The resulting ^14CO2 was absorbed with Carbo-Sorb® (Canberra Packard). The following ^14C radioactivity measurements were determined after addition of the scintillator (Perma-Fluor complete scintillation cocktail No. 6013187, Packard) to the samples with the aid of liquid scintillation counting (LSC). The fecal excretion of ^14C-taurocholic acid was calculated as a cumulative and/or percentage residual radioactivity (see below).
The fecal excretion of ^14C-TCA was determined in combusted aliquot parts of the stool samples taken at 24-hour intervals, calculated as the “cumulative percentage” of the administered activity and expressed as a % of the residual activity (=remaining activity, i.e. administered activity minus the already excreted activity). For the calculation of the dose-response curves, the excretion of ^14C taurocholic acid was expressed as a percentage proportion of the corresponding values of the control group (treated with vehicle). The ED200, i.e. the dose which increases the fecal excretion of ^14C taurocholic acid to 200% of the control group, is calculated from a sigmoid or linear dose-response curve by interpolation. The calculated ED200 corresponds to a dose which doubles the fecal excretion of bile acids.

Row | Structure (SMILES) | ED (200% of control) [mg/kg/day]
1 | CCCC[C@]1(CC)CS(=O)(=O)c2ccc(N(C)C)cc2[C@@H](c2cccc(N)c2)[C@H]1O [Comparison Example 1, reference compound] | 0.8
2 | CCCC[C@]1(CC)CS(=O)(=O)c2ccc(N(C)C)cc2[C@@H](c2cccc(NC(=O)CCCCBr)c2)[C@H]1O [Comparison Example 2, reference compound] | 1
3 | CCCC[C@]1(CC)CS(=O)(=O)c2ccc(N(C)C)cc2[C@@H](c2cccc(NC(=O)CCCC[N+](CC)(CC)CC)c2)[C@H]1O [Comparison Example 3, reference compound] | 0.9
4 | CCCC[C@]1(CC)CS(=O)(=O)c2ccc(N(C)C)cc2[C@@H](c2cccc(NC(=O)[C@H](O)[C@@H](O)[C@H](O)[C@H](O)CO)c2)[C@H]1O [Example 1] | 0.009
5 | CCCC[C@]1(CC)CS(=O)(=O)c2ccc(N(C)C)cc2[C@@H](c2cccc(NC(=O)[C@H](OC(C)=O)[C@@H](OC(C)=O)[C@H](OC(C)=O)[C@@H](COC(C)=O)OC(C)=O)c2)[C@H]1O [Example 2] | 0.008
6 | CCCCC1(CCCC)CS(=O)(=O)c2ccc(N(C)C)cc2[C@@H](c2cccc(NC(=O)[C@H](OC(C)=O)[C@@H](OC(C)=O)[C@H](OC(C)=O)[C@@H](COC(C)=O)OC(C)=O)c2)[C@H]1O [Example 6] | 0.04
7 | CCCCC1(CCCC)CS(=O)(=O)c2ccc(N(C)C)cc2[C@@H](c2cccc(NC(=O)[C@H](O)[C@@H](O)[C@H](O)[C@H](O)CO)c2)[C@H]1O [Example 7] | 0.04
8 | CCCC[C@]1(CC)CS(=O)(=O)c2ccc(N(C)C)cc2[C@@H](c2cccc(NC(=O)CCCCNC(=O)[C@H](OC(C)=O)[C@@H](OC(C)=O)[C@H](OC(C)=O)[C@@H](COC(C)=O)OC(C)=O)c2)[C@H]1O [Example 8] | 0.007
9 | CCCC[C@]1(CC)CS(=O)(=O)c2ccc(N(C)C)cc2[C@@H](c2cccc(NC(=O)CCCCNC(=O)[C@H](O)[C@@H](O)[C@H](O)[C@H](O)CO)c2)[C@H]1O [Example 9] | 0.007
10 | CCCC[C@]1(CC)CS(=O)(=O)c2ccc(N(C)C)cc2[C@@H](c2cccc(NC(=O)CCCCN(C[C@H](OC(C)=O)[C@@H](OC(C)=O)[C@H](OC(C)=O)[C@@H](COC(C)=O)OC(C)=O)C(C)=O)c2)[C@H]1O [Example 10] | 0.04

same assay, conditions: p.o., twice daily for one day, male Wistar rats; dose which increases fecal excretion of 14C taurocholic acid to 200% of control; diastereomer mixture unless stated

Row | Structure (SMILES) | ED200 excretion [mg/kg/day]
11 | CCCC[C@]1(CC)CS(=O)(=O)c2ccc(N(C)C)cc2[C@@H](c2cccc(NC(=O)CCCCNC[C@H](O)[C@@H](O)[C@H](O)[C@H](O)CO)c2)[C@H]1O [3 (pure structure 11a)] | 0.008
12 | CCCC[C@]1(CC)CS(=O)(=O)c2ccc(N(C)C)cc2[C@@H](c2cccc(NC(=O)CCCCNC[C@H](O)[C@@H](O)[C@H](O)[C@H](O)CO)c2)[C@H]1O [Example 3] | 0.04
